Measurements: US12661503B2, “Microcurrent-based skin treatment and pretreatment techniques” (NSE Products, Inc., priority 2022, dated 2026)
Entries after “also recorded” stand apart in the source; their conditions may differ. Read-outs that look alike come from different tables or passages of the source.

Experiments:
[1] = Franz cell epidermal and dermal retention of tracking marker; format: in vitro ADME, human or mammalian
Experimental: (§1) FIG. 7A is a schematic diagram of a Franz cell (or cell system) 700 adapted for testing permeability of a skin sample 710.
(§2) The study was conducted in two phases or parts. Round 1a (Round 1: Phase 1a) evaluated the penetration of 1.0% allantoin (an active) in PBS with a galvanic electrical waveform (GEWF), charge-balanced, symmetric electrical waveform (CSW), and a Program Random Pulse Width Modulation electrical waveform ([…]), in a Franz cell model. Details of the testing process includes receptor well collection and processing (Table 2A), and the epidermal and dermal retention protocol to assess penetration of the tracking markers (Table 2B).
(§3) Receptor fluid collection was measured at time t=0 (before and immediately after the topical sample treatment), at the end of waveform cycle 1 (t=12 min), at the end of waveform cycle 3 (t=36 m); and at 1 hour (1 h), 6 h and 24 h intervals post-pretreatment with the electrical waveform and treatment with the selected topical agents.
Receptor fluid collection was performed at time t=0 (before and immediately after topical sample treatment), at the end of waveform cycle one (12 m), at the end of waveform cycle three (36 m), and at 1 h, 6 h and 24 h intervals post pre-treatment with the electrical waveform, and treatment with the topical agent.
(§4) The number of Franz cell replicates (Franz cells) per sample was n=3 for non-electrical pretreated samples, and n=6 for pulsed electrical pretreatment samples. The number of Franz cell replicates may also vary. The current flow (I) is given in microamperes (μA), and the pulse time (PT) in minutes (mi) where zeros indicate no electrical current, and no pulse time. In each case, the next include the sample being drawn off (draw off), and post pulse treatment/dosing with phosphate buffered saline (PBS) containing 1.0% allantoin. Assessment times were at post 0.5, 1.0, 6 and 24 hours (hr), assaying for allantoin.

[2] = system: upper thigh skin of subjects; assay: Tape stripping assessment for allantoin recovery (LC-MS); format: in vivo; conditions: early tape strips one to five; treated vs untreated upper thigh; week twelve
Experimental: Cellulite was further evaluated by measuring circumference of upper thigh during each visit. At the end of study completion at twelve weeks, twenty tape strips were removed from the treated upper thigh area of five subjects chosen […] and five control strips were obtained from an untreated site on the upper thigh.
In addition, the circumference of each subject's upper thigh was measured during each visit as an indicator for improvement in slimming and firmness (see M. H. Gold, K. A. Khatri, K. Hails, R. A. Weiss and N. Fournier, “Reduction in thigh circumference and improvement in appearance of cellulite,” J. of Cosmetic and Laser Therapy 13, February 2011, which is incorporated by reference herein, in the entirety and for all purposes). At the end of study, the twenty tape strips were collected from the treated upper thigh area, and from an untreated upper thigh area from five randomly chosen subjects. Five tape strips from both treated and untreated areas of upper thigh were evaluated for accumulation of allantoin using LC-MS spectroscopy.
FIGS. 20A and 20B are scatter plots illustrating a tape stripping assessment for allantoin recovery in the upper thigh. The results include representative, anonymous, arbitrarily-labeled samples (S2 and S4), as compared to corresponding controls. […]

[3] = Franz cell tracking marker flux after electrical waveform pretreatment; format: in vitro ADME, human or mammalian
Source text: as §1
FIG. 11A is a bar chart illustrating transdermal allantoin penetration, following selected current treatments. FIG. 11B is a bar chart illustrating allantoin retention in the epidermis and dermis, following the selected treatments. FIG. 11C is a bar chart illustrating allantoin flux, following the selected treatments. The Flus is in arbitrary units, for example μg/cm^2/hr, or other suitable, appropriate or convenient measure, as known in the art.
as §4

[4] = Franz cell epidermal and dermal retention of tracking marker; format: in vitro ADME, human or mammalian; remark: listed apart in the source
[5] = Franz cell transdermal penetration (receptor fluid) after electrical waveform pretreatment; format: in vitro ADME, human or mammalian; conditions: for transdermal penetration of allantoin, six minute vs three minute pretreatment: CSW at 375, 250 and 125 μA (all current levels)
Source text: as §1
An electrical voltage can be applied to or across the sample 720 via an electrode 740 in contact with the skin sample 730, and a conducting lead 750 disposed in a sampling port 760. Suitable materials for electrode 740 and lead 750 include platinum, silver, copper, and other conducting metals, in porous mesh, wafer, plate, or wire form. A heater 770 can be provided to maintain temperature of the Franz cell 710, sample 720 and donor compound 730, during operation of the system 700.
FIG. 7B is a schematic diagram of a Franz cell system 700 adapted for application of a microcurrent treatment to the skin sample 710. In this example, a galvanic unit or waveform generator 780 can be provided to apply a microcurrent waveform to the skin sample 720; e.g., via a negative polarity platinum wire 755 connected to a porous mesh or wafer electrode 740 on the skin surface, with opposite polarity (+) defined by a platinum lead wire or wire electrode 755. Different metals such as copper or silver can also be used, or other suitable conductors. The polarity can also be reversed, or the lead wire 750 can be used to define a ground potential for the Franz cell 710.
Round one testing was performed for three electrical waveforms with allantoin in PBS (phosphate buffered saline) or the NBS agent. The goal was to compare the three electrical waveforms for their capacity to deliver the one or more components in the NBS v1.18 agent. The delivery was tracked via allantoin measurement, used as a skin penetration tracking marker.
as §2
Samples and treatments included 1.0% allantoin in PBS, with no electrical stimulation. The skin sample was also pretreated with a GEWF (Galvanic Electrical waveform) in PBS for thirty-six minutes (36 m), followed by treatment with a PBS topical or agent containing 1.0% allantoin. Pretreatment was also applied with a charge-balanced, symmetric electrical waveform (CSW) in PBS for 36 m, followed by treatment with a PBS agent containing 1.0% allantoin, or treatment with a Program Random Pulse Width Modulation electrical waveform ([…]) in PBS for 36 m followed by application of a PBS agent with 1.0% allantoin.
as §3, with “The microcurrent dosage delivered ranged up to 375 microampere (μA) for a twelve minute cycle, repeated for three cycles. Receptor” for “Receptor”
Round 1b (Round 1: Phase 1b) testing included evaluation of the NBS v1.18 agent with the GEWF (galvanic electrical waveform), CSW (charge-balanced, symmetric electrical waveform) and […] (Program Random Pulse Width Modulation electrical waveform), in a Franz cell model as described herein. Samples and treatments included the NBS v1.18 agent containing 0.1% allantoin, with no electrical stimulation. […]

[6] = Round Three, FIG. 15B, 1.0% allantoin in PBS

## NC(=O)NC1NC(=O)NC1=O (stereo not shown) [allantoin]
[1]; Round 1a, FIG. 9B, 1.0% allantoin in PBS, 24 h
  allantoin retention in epidermis and dermis, GEWF vs CSW and PRPWMEWF: slightly more retention
[1]; [6]
  epidermal retention at pretreatment current of about 375 μA: increased epidermal retention
  retention in the dermis at lower microcurrent levels (250 μA, 125 μA): higher retention in the dermis
[1]; Round Three, FIG. 15B, all microcurrent levels
  skin retention, six minute vs three minute pretreatment: higher skin retention
[2]
  allantoin recovered by tape stripping vs background (control) allantoin level: increased over the background skin allantoin level
[3]; FIG. 11C, test #3 vs #4
  increase in penetration of allantoin upon electrical pre-treatment vs non-electrical pretreated sample with PBS (flux chart): Greater than fivefold increase
[3]; FIG. 11C, test #9 and #11 vs #10
  increase in skin allantoin delivery, electrical pre-treatment with conductive gel vs non-stimulated (flux chart): 5
[3]; Round 2b (caffeine), FIG. 13C, test #1 vs #2
  increase in penetration upon electrical pre-treatment vs non-electrical pretreatment sample with PBS (flux chart): greater than fivefold increase
[3]; Round Four, FIG. 16C, all current levels, 0.5 h to 24 h after pretreatment
  allantoin flux, six minute vs three minute electrical pretreatment: higher allantoin flux
[3]; Round Three, FIG. 15C, 1-6 h
  allantoin flux at later time point: substantially no flux; also recorded: little or substantially no flux
[3]; Round Three, FIG. 15C, all current levels, 30 m to 1 h following pretreatment
  allantoin flux at initial time point: increased allantoin flux
[4]; FIG. 11B, test #3 vs #4
  increase in penetration of allantoin in both epidermis and dermis vs non-electrically stimulated sample with PBS: Greater than fivefold increase
[4]; FIG. 11B, test #9 and #11 vs #10
  skin allantoin delivery in epidermis and dermis, electrically treated conductive gel vs non-stimulated: 5
[4]; Round 2b (caffeine), FIG. 13B, test #1 vs #2
  increase in penetration in both epidermis and dermis vs non-electrically stimulated sample with PBS: greater than fivefold increase
[4]; Round Four, FIG. 16B, NBS 0.1% allantoin, about 375 μA
  epidermal and dermal retention of allantoin, six minute vs three minute pretreatment: increased epidermal and dermal retention
[4]; Round Four, FIG. 16B, about 125 μA
  allantoin retention, three minute and six minute pretreatments: comparable allantoin retention
[4]; Round Four, FIG. 16B, about 250 μA, six minute pretreatment
  allantoin retention in the dermis: stimulate additional allantoin retention in the dermis
[4]; Round Four, FIG. 16B, about 250 μA, three minute pretreatment
  allantoin retention in the epidermis: stimulate allantoin retention in the epidermis
[4]; test #5 vs #6, NBS agent 0.1% allantoin, dermis
  difference in allantoin retention in the dermis: not necessarily a substantial difference
[5]; FIG. 11A, test #9 and #11 vs #10, conductive gel containing 1.0% allantoin, Ept-36 min
  delivery of allantoin after electrical pre-treatment using conductive gel vs non-electrical pretreatment: 5
[5]; Round 1a, FIG. 9A, 1.0% allantoin in PBS after 36 min pretreatment with galvanic, CSW or PRPWM waveform, up to 375 μA
  increase in transdermal penetration of allantoin: fivefold increase
[5]; Round 2b, FIG. 13A, test #1 vs #2, Ept-36 min
  increase in penetration after electrical pre-treatment using PBS vs non-electrical pretreatment, caffeine as tracking marker: greater than fivefold increase
[5]; Round Four, FIG. 16A, NBS agent with 0.1% allantoin left on
  transdermal penetration of allantoin, six minute vs three minute pretreatment: increased transdermal penetration
[5]; Round Three, FIG. 15A, 1.0% allantoin in PBS
  transdermal penetration of allantoin, six minute vs three minute pretreatment: increased transdermal penetration

## Cn1c(=O)c2c(ncn2C)n(C)c1=O [caffeine]
[5]
  increase in penetration after electrical pre-treatment using PBS vs non-electrical pretreatment, caffeine as tracking marker: greater than fivefold increase
